The NIST ThermoML archive (doi:10.1021/je1007197)

Test: xn = mol fraction of the nth substance listed
Settings: Liquid, Hot wire method

CCCCOCCO [2-butoxyethan-1-ol] + O
Settings	thermal conductivity [W/m/K]
321.15 K, 19300 kPa, x1 = 0.75	0.1693
321.15 K, 19700 kPa, x1 = 0.5	0.1896
321.15 K, 28300 kPa, x1 = 0.75	0.1718
321.15 K, 39300 kPa, x1 = 0.75	0.1744
321.15 K, 41800 kPa, x1 = 0.5	0.1959
321.15 K, 56100 kPa, x1 = 0.5	0.2001
321.15 K, 56100 kPa, x1 = 0.75	0.1792
321.15 K, 70200 kPa, x1 = 0.5	0.2034
321.15 K, 71600 kPa, x1 = 0.75	0.1836
321.15 K, 84200 kPa, x1 = 0.5	0.2073
321.15 K, 84200 kPa, x1 = 0.75	0.1871
321.15 K, 96500 kPa, x1 = 0.5	0.2099
321.15 K, 98900 kPa, x1 = 0.75	0.1907
321.15 K, 111500 kPa, x1 = 0.75	0.1929
321.15 K, 112200 kPa, x1 = 0.5	0.2144
321.15 K, 124800 kPa, x1 = 0.75	0.1959
321.15 K, 126900 kPa, x1 = 0.5	0.2172
321.15 K, 141500 kPa, x1 = 0.5	0.2201
321.15 K, 142200 kPa, x1 = 0.75	0.1998
321.15 K, 149900 kPa, x1 = 0.5	0.2213
321.15 K, 150600 kPa, x1 = 0.75	0.2016
322 K, 100 kPa, x1 = 0.0478	0.4932
322 K, 5400 kPa, x1 = 0.0478	0.4886
322 K, 20000 kPa, x1 = 0.0478	0.4931
322 K, 34600 kPa, x1 = 0.0478	0.5006
322 K, 52500 kPa, x1 = 0.0478	0.5069
322 K, 70200 kPa, x1 = 0.0478	0.5149
322 K, 87700 kPa, x1 = 0.0478	0.5221
322 K, 105200 kPa, x1 = 0.0478	0.528
322 K, 119200 kPa, x1 = 0.0478	0.5322
322 K, 133200 kPa, x1 = 0.0478	0.5354
335 K, 100 kPa, x1 = 0.1732	0.2804
335 K, 10000 kPa, x1 = 0.1732	0.2851
335 K, 19000 kPa, x1 = 0.1732	0.2895
335 K, 41800 kPa, x1 = 0.1732	0.2972
335 K, 70200 kPa, x1 = 0.1732	0.306
335 K, 84200 kPa, x1 = 0.1732	0.3077
335 K, 98200 kPa, x1 = 0.1732	0.3111
335 K, 112200 kPa, x1 = 0.1732	0.3153
335 K, 125500 kPa, x1 = 0.1732	0.3205
335 K, 137300 kPa, x1 = 0.1732	0.3218
338.15 K, 100 kPa, x1 = 0.5	0.1796
338.15 K, 100 kPa, x1 = 0.75	0.1594
338.15 K, 10400 kPa, x1 = 0.5	0.1841
338.15 K, 11000 kPa, x1 = 0.75	0.1637
338.15 K, 19000 kPa, x1 = 0.5	0.1866
338.15 K, 19500 kPa, x1 = 0.5	0.1867
338.15 K, 19500 kPa, x1 = 0.75	0.1663
338.15 K, 30700 kPa, x1 = 0.75	0.1702
338.15 K, 39300 kPa, x1 = 0.75	0.1723
338.15 K, 41800 kPa, x1 = 0.5	0.1936
338.15 K, 56100 kPa, x1 = 0.5	0.1986
338.15 K, 56100 kPa, x1 = 0.75	0.1767
338.15 K, 70200 kPa, x1 = 0.5	0.2018
338.15 K, 70200 kPa, x1 = 0.75	0.1812
338.15 K, 80700 kPa, x1 = 0.5	0.2039
338.15 K, 91200 kPa, x1 = 0.75	0.1868
338.15 K, 98200 kPa, x1 = 0.5	0.2083
338.15 K, 105200 kPa, x1 = 0.75	0.1907
338.15 K, 112200 kPa, x1 = 0.5	0.2118
338.15 K, 117800 kPa, x1 = 0.75	0.1924
338.15 K, 126200 kPa, x1 = 0.5	0.2146
338.15 K, 131800 kPa, x1 = 0.75	0.1964
338.15 K, 140800 kPa, x1 = 0.5	0.2183
338.15 K, 147100 kPa, x1 = 0.75	0.1997
346.5 K, 100 kPa, x1 = 0.1732	0.2659
346.5 K, 10000 kPa, x1 = 0.1732	0.2753
346.5 K, 20000 kPa, x1 = 0.1732	0.2796
346.5 K, 29500 kPa, x1 = 0.1732	0.2834
346.5 K, 49000 kPa, x1 = 0.1732	0.2904
346.5 K, 84200 kPa, x1 = 0.1732	0.3009
346.5 K, 98200 kPa, x1 = 0.1732	0.3029
346.5 K, 112200 kPa, x1 = 0.1732	0.3046
346.5 K, 122700 kPa, x1 = 0.1732	0.31
346.5 K, 140100 kPa, x1 = 0.1732	0.3122
346.5 K, 148500 kPa, x1 = 0.1732	0.3128
